Read-outs that look alike come from different tables or passages of the source.
Tested on: LEFCH (Leptochloa chinensis)
Assay: Post-emergence action against LEFCH (greenhouse pot test, visual evaluation)
Format: in vivo
Conditions: for pest or weed control at 50 g/ha: read-out: Action against LEFCH
Experimental: The herbicidal activity of the active substances or active substance mixtures was evaluated visually from the treated variants in comparison with untreated control variants. In this connection, damage to and development of all plant parts above ground was included. The evaluation was carried out according to a percentage scale (100% action=all plants dead; 50% action=50% of the plants and green plant parts dead; 0% action=no recognizable action=as untreated control plot).
Seeds or root pieces of mono- and dicotyledonous weeds are placed in sandy clay soil in pots, covered with earth and secured in a greenhouse under good growing conditions (temperature, air humidity, water supply). Approximately three weeks after sowing, the test plants are treated with the compositions according to the invention. The compositions according to the invention formulated as wettable powders or as emulsion concentrates are sprayed, in spray application, on to the green plant parts in different dosages with a water application rate of 600 to 800 I/ha (corrected). Immediately up to a few days after application, the test receptacles accumulate water over the ground surface by up to 30 mm. With the water application (submerged application), on the other hand, the ground in the closed test receptacle is already covered with the paddy water up to 30 mm at the time of the application. The formulated active substances are here added directly to the paddy water. After an exposure time of the test plants in the greenhouse of an additional 3 to 4 weeks under optimum growing conditions, the effect of the preparations is evaluated visually in comparison with untreated controls. […] In this connection, actions of the combinations according to the invention which exceed the formal sum of the actions of the herbicides when applied individually are frequently observed. The values observed for the tests show, with suitable low dosages, an action of the combinations which lies above the expected values according to Colby.
If the observed activity values already exceed the formal sum of the values for the tests with individual applications, then they likewise exceed the expected value according to Colby, which is calculated according to the following formula and is likewise regarded as an indication of synergy (cf. S. R. Colby in Weeds, 15 (1967), pp. 20 to 22):
[formula] In this connection: • A, B=action of the component A or B in percent at a dosage of a or b grams ai/ha. • E=expected value in % at a dosage of a+b grams ai/ha.
The abbreviation LEFCH is the harmful plant Leptochloa chinensis.

[1] = dosage 12.5 g/ha, single herbicide
[2] = dosage 50 g/ha, single herbicide
[3] = Dinebra chinensis, dosage 50 g/ha, single herbicide
[4] = dosage 2.5 g/ha, single herbicide
[5] = dosage 75 g/ha, single herbicide

Q: How did the “Action against LEFCH” value [1] turn out when `CC(C)c1nn(C(=O)NC(C)(C)C)c(=O)n1N` [Compound B1, amicarbazone] was run?
A: Its value is 10%.

Q: Which “Action against LEFCH” value (dosage 7.5 g/ha, single herbicide) does the source give for `Nc1cc(Cl)nc(C(=O)O)c1Cl` [Compound B2, aminopyralid] here?
A: Its value is 30%.

Q: Which “Action against LEFCH” value [2] does the source give for `COC(=O)c1nc(C2CC2)nc(N)c1Cl` [Compound B3, aminocyclopyrachlor-methyl] here?
A: The value was 10%.

Q: How did the pest or weed control at 50 g/ha [3] turn out when `COc1cc(OC)nc(NC(=O)NS(=O)(=O)Nc2ccccc2C(=O)C2CC2)n1` [Compound B4, cyclosulfamuron] was run?
A: Its pest or weed control at 50 g/ha is 20%.

Q: With `Cc1ccc2c(c1)[C@H](Nc1nc(N)nc(C(C)F)n1)[C@@H](C)C2` (stereo partly shown) [Compound B5, indaziflam] as the molecule, how does the “Action against LEFCH” value [4] read?
A: Its value is 25%.

Q: Which “Action against LEFCH” value [4] does the source give for `COCC(=O)OC(c1ncccc1S(=O)(=O)NC(=O)Nc1nc(OC)cc(OC)n1)C(C)F` (stereo not shown) [Compound B6, flucetosulfuron] here?
A: Its value is 20%.

Q: For `CC(C)N(C(=O)n1cnn(-c2ccc(Cl)cc2Cl)c1=O)c1ccc(F)cc1F` [Compound B7, ipfencarbazone], which “Action against LEFCH” value [2] is on record?
A: Its value is 25%.

Q: How did the “Action against LEFCH” value [5] turn out when `C[C@@H](Oc1ccc(Oc2nc3ccc(Cl)cc3o2)cc1)C(=O)N(C)c1ccccc1F` [Compound B8, metamifop] was run?
A: The value was 15%.

Q: For `COc1cc(OC)nc(NC(=O)NS(=O)(=O)Nc2ccccc2C(=O)N(C)C)n1` [Compound B9, orthosulfamuron], which “Action against LEFCH” value (dosage 30 g/ha, single herbicide) is on record?
A: Its value is 40%.

Q: For `COc1cnc(OC)n2nc(NS(=O)(=O)c3c(OCC(F)F)cccc3C(F)(F)F)nc12` [Compound B10, penoxsulam], which pest or weed control at 15 g/ha (Dinebra chinensis, dosage 15 g/ha, single herbicide) is on record?
A: Its pest or weed control at 15 g/ha is 20%.

Q: Which pest or weed control at 10 g/ha (Dinebra chinensis, dosage 10 g/ha, single herbicide) does the source give for `CCc1cc(C)cc(CC)c1-c1c(OC(=O)C(C)(C)C)n2n(c1=O)CCOCC2` [Compound B11, pinoxaden] here?
A: The pest or weed control at 10 g/ha was 15%.

Q: Which “Action against LEFCH” value [2] does the source give for `CCCc1ccc2nc(Cl)c(S(=O)(=O)NC(=O)Nc3nc(OC)cc(OC)n3)n2n1` [Compound B12, propyrisulfuron] here?
A: The value was 30%.

Q: Which “Action against LEFCH” value [5] does the source give for `C#CCN(C)c1c(C#N)cnn1-c1nn2c(c1Cl)CCCC2` [Compound B13, pyraclonil] here?
A: The value was 30%.

Q: How did the “Action against LEFCH” value [1] turn out when `Cc1nn(C)c(O)c1C(=O)c1ccc(C(F)(F)F)cc1S(C)(=O)=O` [Compound B14, pyrasulfotole] was run?
A: The value was 30%.

Q: For `COCc1cccc(C(O)c2nc(OC)cc(OC)n2)c1NS(=O)(=O)C(F)F` (stereo not shown) [Compound B15, pyrimisulfan], which “Action against LEFCH” value [2] is on record?
A: The value was 20%.

Q: Which pest or weed control at 7.5 g/ha (Dinebra chinensis, dosage 7.5 g/ha, single herbicide) does the source give for `Cn1nc(C(F)(F)F)c(CS(=O)(=O)C2=NOC(C)(C)C2)c1OC(F)F` [Compound B17, pyroxasulfone] here?
A: The pest or weed control at 7.5 g/ha was 15%.

Q: How did the “Action against LEFCH” value (dosage 15 g/ha, single herbicide) turn out when `COc1cc(OC)n2nc(NS(=O)(=O)c3c(C(F)(F)F)ccnc3OC)nc2n1` [Compound B18, pyroxsulam] was run?
A: The value was 20%.

Q: How did the pest or weed control at 3 g/ha (Dinebra chinensis, dosage 3 g/ha, single herbicide) turn out when `CC(C)N(C)S(=O)(=O)NC(=O)c1cc(-n2c(=O)cc(C(F)(F)F)n(C)c2=O)c(F)cc1Cl` [Compound B19, saflufenacil] was run?
A: The pest or weed control at 3 g/ha was 8%.

Q: For `COc1cc(OC)nc(NC(=O)NS(=O)(=O)c2c(C3=NOCC(C)O3)c(Cl)nn2C)n1` (stereo not shown) [Compound B20, 3-chloro-N-[(4,6-dimethoxypyrimidin-2-yl)carbamoyl]-1-methyl-4-(5-methyl-5,6-dihydro-1,4,2-dioxazin-3-yl)-1H-pyrazole-5-sulfonamide], which pest or weed control at 50 g/ha [3] is on record?
A: Its pest or weed control at 50 g/ha is 15%.

Q: How did the pest or weed control at 50 g/ha (Dinebra chinensis) turn out when `COC(=O)c1nc(-c2ccc(Cl)c(OC)c2F)cc(N)c1Cl` [Compound B22, methyl 4-amino-3-chloro-6-(4-chloro-2-fluoro-3-methoxyphenyl)pyridine-2-carboxylate] was run?
A: Its pest or weed control at 50 g/ha is 10%.

Q: For `COCCOCc1nc(C(F)(F)F)ccc1C(=O)C1C(=O)C2CCC(C2)C1=O` (stereo not shown) [Compound B23, 3-({2-[(2-methoxyethoxy)methyl]-6-(trifluoromethyl)pyridin-3-yl}-carbonyl)bicyclo[3.2.1]octane-2,4-dione], which pest or weed control at 12.5 g/ha (Dinebra chinensis, dosage 12.5 g/ha, single herbicide) is on record?
A: Its pest or weed control at 12.5 g/ha is 25%.

Q: For `CS(=O)(=O)c1ccc(C(=O)C2C(=O)CCCC2=O)c(Cl)c1COCC1CCCO1` (stereo not shown) [tefuryltrione], which “Action against LEFCH” value [2] is on record?
A: The value was 20%.

Reference: patent US8728977B2, “Herbicidal combinations comprising tefuryltrione for use in rice crops” (Bayer Cropscience AG, priority 2009, dated 2014)
